Entries after “also recorded” stand apart in the source; their conditions may differ.
Experiments:
NIH/3T3 cells [1] = assay: Long-term proliferation assay for 5-FC sensitivity; assay type: cell-based; conditions: 10-14 days
Procedure: C. Negative Selection of Cells Containing the CD-neo (SEQ ID NO:3 Selectable Fusion Gene. To investigate the utility of the neo and CD-neo (SEQ ID NO:3 selectable fusion genes for negative selection, the colonies resulting from each transfection were pooled and expanded into cell lines for further analysis. The NIH/3T3 cells, or NIH/3T3 cells infected with the tgLS(+)neo or tgLS(+)CD-neo retroviruses were assayed for 5-FC^s using a long-term proliferation assay.
First, 1×10^4 cells were seeded into 10 cm tissue culture dishes in complete growth medium and allowed to attach for 4 hours. The medium was then supplemented with various concentrations of G-418 and/or 5-FC (Sigma), after which the cells were incubated for a further 10-14 days. The medium was replaced every 2-4 days. The cells were then fixed in situ with 100% methanol and stained with methylene blue.

transfected Rat-2 cells = assay: Short term cell proliferation assay for GCV sensitivity; assay type: cell-based
Procedure: (§1) C. Negative Selection of Cells Containing the HyTK (SEQ ID NO:1 Selectable Fusion Gene. To investigate the utility of the HyTK (SEQ ID NO:1 selectable fusion gene for negative selection, the colonies resulting from each transfection (Table 1) were pooled and expanded into cell lines for further analysis. The Hm^r NIH/3T3 cell pools and the Hm^r and HAT^r Rat-2 cell pools were tested for GCV^s in a short term cell proliferation assay as follows.
(§2) The transfected NIH/3T3 and Rat-2 cells (3×10^4 of each) were seeded into 9-cm tissue culture dishes in complete growth medium, and allowed to attach for 4 hours. The medium was then supplemented with various concentrations of GCV (Syntex, Palo Alto, Calif.), and the cells incubated for an additional 60 hours. At this time, the medium was removed, the attached cells were harvested by trypsinization and stained with trypan blue, and the viable cells were counted. Cell growth was expressed as a fraction of the cell growth observed in the absence of GCV. The results shown are the average of triplicate assays.

[2] = tested on: transfected NIH/3T3 cells; assay: as above; assay type: cell-based
Procedure: as §1, §2

NIH/3T3 cells [3] = assay: Long-term cell proliferation assay for GCV sensitivity (colony formation); assay type: cell-based
Procedure: Uninfected NIH/3T3 cells and the infected NIH/3T3 cell pools were plated at relatively low cell density (10^4 cells/[…]) in complete growth medium and allowed to attach for 4 hours. The medium was then supplemented with hygromycin B (500 μg/ml), with or without 1 μM GCV, and the cells incubated for a period of 10 days. The medium was then removed and the cells were fixed in situ with 100% methanol and stained with methylene blue. […] Colonies of cells resistant to both Hm and GCV were obtained at a low frequency (10^−4-10^−3) from the retrovirus-infected populations (FIG. 6, plates e and g). The proviruses present in the cells that gave rise to these colonies had likely suffered point mutations, or very small deletions or rearrangements in the HSV-I TK moiety which eliminated the ability to phosphorylate GCV. Similar results were also obtained with Rat-2 cell lines infected with tgLS(+)HyTK or with tgLS(−)CMV/HyTK (data not shown).

[4] = tested on: cells expressing the HSV-I TK gene; conditions: cited from earlier work
murine sarcoma (K3T3) = conditions: syngeneic mice; Moolten and Wells 1990; cited from earlier work
[5] = NIH/3T3 cells infected with tgLS(+)CD-neo, 800 μg/ml G-418, 100 μg/ml 5-FC
[6] = NIH/3T3 cells infected with tgLS(+)neo, 800 μg/ml G-418, 100 μg/ml 5-FC
[7] = uninfected NIH/3T3 cells, 800 μg/ml G-418 or 100 μg/ml 5-FC

Nc1nc(=O)[nH]cc1F [5-FC, 5-fluorocytosine]
Sensitivity or resistance of cells to the drug (NIH/3T3 cells [1]; [5]): sensitive
Sensitivity or resistance of cells to the drug (NIH/3T3 cells [1]; [6]): resistant
Sensitivity or resistance of cells to the drug (NIH/3T3 cells [1]; [7]): resistant

CN[C@@H]1[C@@H](O)[C@@H](O[C@@H]2[C@@H](O)[C@H](O[C@H]3O[C@H]([C@@H](C)O)[C@@H](O)[C@H](O)[C@H]3N)[C@@H](N)C[C@H]2N)OC[C@]1(C)O [G-418]
Sensitivity or resistance of cells to the drug (NIH/3T3 cells [1]; [5]): resistant
Sensitivity or resistance of cells to the drug (NIH/3T3 cells [1]; [6]): resistant
Sensitivity or resistance of cells to the drug (NIH/3T3 cells [1]; [7]): sensitive

Nc1nc(O)c2ncn(COC(CO)CO)c2n1 [GCV, ganciclovir]
Sensitivity to GCV of Rat-2 cell pools transfected with tgCMV/HyTK relative to Rat-2 cells transfected with tgCMV/TK (transfected Rat-2 cells; Rat-2, both Hm^r and HAT^r selected pools): over 30 fold
Effect of GCV on cell growth (transfected Rat-2 cells; Rat-2 cells transfected with tgCMV/HyTK (selected for Hm^r or HAT^r), lowest concentration 0.03 μM GCV): inhibits growth; also recorded: almost completely inhibited
Effect of GCV on cell growth (transfected Rat-2 cells; Rat-2 cells transfected with tgCMV/TK, higher concentrations required than for tgCMV/HyTK cells): inhibits growth; also recorded: inhibited
Effect of GCV on cell growth (transfected Rat-2 cells; Rat-2 cells transfected with tgCMV/hygro, 0.03 μM-1.0 μM GCV): did not inhibit growth; also recorded: not inhibited
inhibition at 1 µM ([2]; Mus musculus, NIH3T3, NIH/3T3 cells transfected with tgCMV/HyTK, 1 μM GCV, 60 hours, read-out: Degree of inhibition of cell growth): ~100%
Effect of GCV on cell growth ([2]; NIH/3T3 cells transfected with tgCMV/HyTK): inhibits growth
Effect of GCV on cell growth ([2]; NIH/3T3 cells transfected with tgCMV/hygro, 0.03 μM-1.0 μM GCV): does not inhibit growth; also recorded: not adversely affected
Growth as measured by colony formation (NIH/3T3 cells [3]; NIH/3T3 cell pools infected with tgLS(+)HyTK or tgLS(−)CMV/HyTK, 500 μg/ml hygromycin B plus 1 μM GCV, 10 days): almost completely inhibited
Infected cells killed by GCV (NIH/3T3 cells [3]; cells infected with HyTK retroviral vectors): > 99.9%
Frequency of colonies resistant to both Hm and GCV (NIH/3T3 cells [3]; retrovirus-infected NIH/3T3 populations, 500 μg/ml Hm plus 1 μM GCV): 10^−4-10^−3
Growth of uninfected cells in GCV (NIH/3T3 cells [3]; uninfected NIH/3T3, 1 μM GCV, 10 days): resistant
Regression of Abelson leukemia virus-induced lymphomas ([4]; same transgenic mice, Moolten et al. 1990): full regression
Ablation of cells expressing the HSV-I TK gene ([4]; transgenic animals, Heyman et al. 1989): selective ablation
Eradication of tumors induced by the sarcoma cells (murine sarcoma (K3T3)): completely eradicated

CN[C@H]1C[C@@H](N)[C@H](O)[C@@H](O[C@@H]2O[C@H](CO)[C@H](O)[C@@H]3OC4(O[C@H]23)O[C@H]([C@@H](N)CO)[C@H](O)[C@H](O)[C@H]4O)[C@@H]1O (stereo partly drawn) [Hm, hygromycin B]
Growth of uninfected cells in Hm (NIH/3T3 cells [3]; uninfected NIH/3T3, 500 μg/ml Hm, 10 days): completely killed

From patent publication US6555370B1, “Bifunctional selectable fusion genes” (Immunex Corporation, priority 1990, dated 2003)
